Laboratory results: paper PMC7206119, “RIP1 inhibition blocks inflammatory diseases but not tumor growth or metastases” (Cell Death and Differentiation, 2019)

Assays:
Assay in all cases: biochemical
Design in all cases: DiscoverX kinase panel, active-site competition binding (KINOMEscan type), percent of control at one concentration
Conditions in all cases: competition binding, percent of control
[1] = molecular target: EGFR(L747-E749del, A750P) (Homo sapiens, UniProt P00533, A750P/DEL747-749)
MEK2 = molecular target: T1, MEK2 (Homo sapiens, UniProt P36507)
T1 construct: gene MAP2K2

FLT3(N841I) = FLT3(N841I) (Homo sapiens, UniProt P36888, N841I)
LCK = LCK (Homo sapiens, UniProt P06239)
RIPK5 = molecular target: T2, RIPK5 (Homo sapiens, UniProt Q6XUX3)
T2 construct: gene DSTYK

TAK1 = molecular target: T3, TAK1 (Homo sapiens, UniProt O43318)
T3 construct: gene MAP3K7

PIM3 = PIM3 (Homo sapiens, UniProt Q86V86)
ANKK1 = ANKK1 (Homo sapiens, UniProt Q8NFD2)
PFCDPK1(P.falciparum) = molecular target: T4, PFCDPK1(P.falciparum) (Plasmodium falciparum, UniProt P62344)
T4 construct: gene CDPK1
T4 sequence (P62344 whole entry): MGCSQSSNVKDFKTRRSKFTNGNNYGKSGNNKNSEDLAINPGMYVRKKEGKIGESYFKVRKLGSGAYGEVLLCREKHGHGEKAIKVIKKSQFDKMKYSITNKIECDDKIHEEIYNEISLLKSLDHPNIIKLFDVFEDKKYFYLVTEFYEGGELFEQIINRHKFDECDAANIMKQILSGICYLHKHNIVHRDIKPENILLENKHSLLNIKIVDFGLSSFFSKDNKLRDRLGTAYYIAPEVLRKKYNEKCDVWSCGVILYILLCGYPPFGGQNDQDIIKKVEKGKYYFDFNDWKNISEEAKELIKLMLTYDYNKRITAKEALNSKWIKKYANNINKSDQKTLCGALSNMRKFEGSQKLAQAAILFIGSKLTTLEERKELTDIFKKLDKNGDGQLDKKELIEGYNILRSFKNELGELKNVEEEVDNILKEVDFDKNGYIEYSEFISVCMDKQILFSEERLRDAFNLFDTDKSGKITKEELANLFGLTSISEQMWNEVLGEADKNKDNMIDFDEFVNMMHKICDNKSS

BIKE = molecular target: T5, BIKE (Homo sapiens, UniProt Q9NSY1)
T5 construct: gene BMP2K

EPHA1 = EPHA1 (Homo sapiens, UniProt P21709)
CAMK1B = molecular target: T6, CAMK1B (Homo sapiens, UniProt Q6P2M8)
T6 construct: gene PNCK
T6 sequence (Q6P2M8 whole entry): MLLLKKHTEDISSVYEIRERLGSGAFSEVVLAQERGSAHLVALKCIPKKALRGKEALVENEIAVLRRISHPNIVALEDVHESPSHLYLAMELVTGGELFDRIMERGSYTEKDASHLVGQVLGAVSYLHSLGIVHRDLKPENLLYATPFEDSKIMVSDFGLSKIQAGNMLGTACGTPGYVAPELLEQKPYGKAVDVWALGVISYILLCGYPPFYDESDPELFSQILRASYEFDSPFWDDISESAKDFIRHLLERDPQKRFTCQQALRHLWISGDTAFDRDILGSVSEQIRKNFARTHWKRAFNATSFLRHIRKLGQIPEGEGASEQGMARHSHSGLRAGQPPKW

FLT3(D835V) = FLT3(D835V) (Homo sapiens, UniProt P36888, D835V)
LATS1 = LATS1 (Homo sapiens, UniProt O95835)
Sequence of LATS1 (O95835 whole entry): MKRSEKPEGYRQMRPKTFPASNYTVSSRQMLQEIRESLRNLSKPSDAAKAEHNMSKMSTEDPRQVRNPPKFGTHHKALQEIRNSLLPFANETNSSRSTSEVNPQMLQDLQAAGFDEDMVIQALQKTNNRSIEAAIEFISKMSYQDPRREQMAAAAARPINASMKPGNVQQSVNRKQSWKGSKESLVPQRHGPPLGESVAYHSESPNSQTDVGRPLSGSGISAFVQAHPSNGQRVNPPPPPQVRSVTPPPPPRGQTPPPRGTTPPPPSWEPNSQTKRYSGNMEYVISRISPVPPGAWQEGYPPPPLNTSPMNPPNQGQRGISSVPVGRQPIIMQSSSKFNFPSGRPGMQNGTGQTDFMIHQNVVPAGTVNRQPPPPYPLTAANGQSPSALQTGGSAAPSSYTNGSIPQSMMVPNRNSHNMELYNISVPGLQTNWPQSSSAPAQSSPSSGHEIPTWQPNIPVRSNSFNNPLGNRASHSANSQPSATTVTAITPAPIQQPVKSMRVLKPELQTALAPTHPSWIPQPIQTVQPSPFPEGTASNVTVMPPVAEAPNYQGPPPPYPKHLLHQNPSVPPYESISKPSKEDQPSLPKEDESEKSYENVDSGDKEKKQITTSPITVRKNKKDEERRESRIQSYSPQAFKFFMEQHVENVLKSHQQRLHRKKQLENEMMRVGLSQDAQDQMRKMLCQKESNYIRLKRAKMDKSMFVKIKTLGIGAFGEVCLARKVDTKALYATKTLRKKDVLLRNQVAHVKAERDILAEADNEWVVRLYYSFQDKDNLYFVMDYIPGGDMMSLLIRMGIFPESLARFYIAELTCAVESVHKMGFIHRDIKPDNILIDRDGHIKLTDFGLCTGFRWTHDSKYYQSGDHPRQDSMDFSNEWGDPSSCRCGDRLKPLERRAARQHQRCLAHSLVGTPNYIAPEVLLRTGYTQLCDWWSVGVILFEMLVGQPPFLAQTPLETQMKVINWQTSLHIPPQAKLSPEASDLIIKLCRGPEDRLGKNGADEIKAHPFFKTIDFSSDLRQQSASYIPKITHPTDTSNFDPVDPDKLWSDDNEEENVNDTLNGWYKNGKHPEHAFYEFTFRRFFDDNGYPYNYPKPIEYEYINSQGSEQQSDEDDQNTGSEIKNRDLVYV

[2] = molecular target: T7, RSK3(Kin.Dom.2-C-terminal) (Homo sapiens, UniProt Q15349)
T7 construct: gene RPS6KA2; Kin.Dom.2-C-terminal

CAMK2D = CAMK2D (Homo sapiens, UniProt Q13557)
EPHA6 = EPHA6 (Homo sapiens, UniProt Q9UF33)
PIK3C2G = PIK3C2G (Homo sapiens, UniProt O75747)
DAPK3 = DAPK3 (Homo sapiens, UniProt O43293)
PRKCI = PRKCI (Homo sapiens, UniProt P41743)
Sequence of PRKCI (P41743 whole entry): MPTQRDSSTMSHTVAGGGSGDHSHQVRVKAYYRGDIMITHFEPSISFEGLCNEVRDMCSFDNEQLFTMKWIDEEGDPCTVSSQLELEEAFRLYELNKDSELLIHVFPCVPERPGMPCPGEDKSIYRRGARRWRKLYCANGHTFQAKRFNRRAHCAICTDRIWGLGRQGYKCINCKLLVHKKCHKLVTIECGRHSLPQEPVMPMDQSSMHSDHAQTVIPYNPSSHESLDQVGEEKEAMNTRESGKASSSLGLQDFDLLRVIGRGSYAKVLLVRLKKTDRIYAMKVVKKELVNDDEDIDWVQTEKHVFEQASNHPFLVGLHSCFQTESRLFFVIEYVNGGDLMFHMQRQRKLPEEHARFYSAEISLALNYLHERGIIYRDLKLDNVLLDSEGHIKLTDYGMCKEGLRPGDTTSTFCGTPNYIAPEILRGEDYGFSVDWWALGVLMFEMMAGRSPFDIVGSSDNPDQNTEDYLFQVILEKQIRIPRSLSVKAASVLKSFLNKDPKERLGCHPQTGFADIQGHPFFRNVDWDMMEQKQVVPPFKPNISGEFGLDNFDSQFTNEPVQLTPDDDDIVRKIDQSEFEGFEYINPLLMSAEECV

AXL = AXL (Homo sapiens, UniProt P30530)
Sequence of AXL (P30530 whole entry): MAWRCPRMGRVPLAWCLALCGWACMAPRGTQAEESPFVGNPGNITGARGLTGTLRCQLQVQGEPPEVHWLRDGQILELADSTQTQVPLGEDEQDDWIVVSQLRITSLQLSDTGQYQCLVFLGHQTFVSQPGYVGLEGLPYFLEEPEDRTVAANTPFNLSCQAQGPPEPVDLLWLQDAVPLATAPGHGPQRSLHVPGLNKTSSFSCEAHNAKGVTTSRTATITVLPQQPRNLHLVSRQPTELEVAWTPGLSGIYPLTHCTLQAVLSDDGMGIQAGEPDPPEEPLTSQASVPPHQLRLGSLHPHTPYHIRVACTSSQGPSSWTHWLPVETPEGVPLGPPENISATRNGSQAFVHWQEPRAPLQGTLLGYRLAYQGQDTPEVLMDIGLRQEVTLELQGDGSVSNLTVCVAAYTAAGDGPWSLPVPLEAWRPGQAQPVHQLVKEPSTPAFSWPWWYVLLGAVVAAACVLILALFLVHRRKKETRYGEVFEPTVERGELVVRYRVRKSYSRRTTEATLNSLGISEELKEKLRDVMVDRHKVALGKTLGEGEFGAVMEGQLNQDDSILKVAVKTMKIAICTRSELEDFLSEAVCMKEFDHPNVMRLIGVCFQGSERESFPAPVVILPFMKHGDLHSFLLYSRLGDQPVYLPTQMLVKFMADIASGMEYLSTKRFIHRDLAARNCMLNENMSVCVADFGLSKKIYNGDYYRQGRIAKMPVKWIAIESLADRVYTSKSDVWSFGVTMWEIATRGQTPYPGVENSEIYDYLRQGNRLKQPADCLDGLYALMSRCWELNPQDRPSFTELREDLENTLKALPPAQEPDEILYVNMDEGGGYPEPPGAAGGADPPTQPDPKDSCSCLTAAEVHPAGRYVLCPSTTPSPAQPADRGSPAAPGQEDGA

Sequence of EGFR(L747-E749del, A750P) (P00533 with tags, fused parts or gaps DEL747-749/A750P): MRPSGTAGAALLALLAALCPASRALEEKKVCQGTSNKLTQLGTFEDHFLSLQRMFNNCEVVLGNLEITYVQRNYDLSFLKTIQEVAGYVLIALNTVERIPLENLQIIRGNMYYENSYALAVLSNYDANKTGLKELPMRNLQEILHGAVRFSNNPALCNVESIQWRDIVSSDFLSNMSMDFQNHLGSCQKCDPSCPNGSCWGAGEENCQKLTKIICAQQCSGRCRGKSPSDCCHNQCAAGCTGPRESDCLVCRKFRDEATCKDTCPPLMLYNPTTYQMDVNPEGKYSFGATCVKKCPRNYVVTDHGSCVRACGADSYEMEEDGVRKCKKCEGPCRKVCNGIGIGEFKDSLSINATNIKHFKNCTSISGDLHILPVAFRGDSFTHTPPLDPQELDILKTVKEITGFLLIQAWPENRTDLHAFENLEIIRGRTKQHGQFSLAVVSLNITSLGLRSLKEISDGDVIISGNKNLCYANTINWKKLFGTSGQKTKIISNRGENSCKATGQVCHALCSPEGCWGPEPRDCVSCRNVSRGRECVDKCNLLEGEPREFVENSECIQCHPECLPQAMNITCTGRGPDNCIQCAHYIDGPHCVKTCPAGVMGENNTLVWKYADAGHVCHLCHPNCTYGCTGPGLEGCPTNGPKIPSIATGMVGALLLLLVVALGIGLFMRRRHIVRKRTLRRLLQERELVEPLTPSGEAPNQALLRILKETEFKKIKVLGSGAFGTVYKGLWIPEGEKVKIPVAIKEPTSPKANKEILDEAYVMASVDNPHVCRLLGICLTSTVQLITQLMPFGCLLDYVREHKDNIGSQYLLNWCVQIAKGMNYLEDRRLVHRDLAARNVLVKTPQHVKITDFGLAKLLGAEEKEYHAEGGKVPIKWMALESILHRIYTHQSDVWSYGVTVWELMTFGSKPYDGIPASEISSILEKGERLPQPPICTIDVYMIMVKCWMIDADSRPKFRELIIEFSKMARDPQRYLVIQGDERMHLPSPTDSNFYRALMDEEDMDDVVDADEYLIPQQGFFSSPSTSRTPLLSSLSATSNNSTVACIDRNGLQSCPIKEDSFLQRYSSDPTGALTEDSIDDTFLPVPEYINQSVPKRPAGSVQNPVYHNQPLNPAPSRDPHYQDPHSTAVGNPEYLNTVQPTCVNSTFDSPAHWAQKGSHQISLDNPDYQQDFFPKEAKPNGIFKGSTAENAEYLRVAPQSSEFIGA

COc1cc2c(cn1)N(C)C(=O)[C@@H](NC(=O)c1nc3n(n1)[C@H](c1ccccc1)CC3)CC2 [GNE684, (S)-N-((S)-7-methoxy-1-methyl-2-oxo-2,3,4,5-tetrahydro-1H-pyrido[3,4-b]azepin-3-yl)-5-phenyl-6,7-dihydro-5H-pyrrolo[1,2-b][1,2,4]triazole-2-carboxamide]
remaining binding at 10 µM [1]: 85%
remaining binding at 10 µM (MEK2): 80%
remaining binding at 10 µM (FLT3(N841I)): 100%
remaining binding at 10 µM (LCK): 86%
remaining binding at 10 µM (RIPK5): 48%
remaining binding at 10 µM (TAK1): 100%
remaining binding at 10 µM (PIM3): 100%
remaining binding at 10 µM (ANKK1): 98%
remaining binding at 10 µM (PFCDPK1(P.falciparum)): 100%
remaining binding at 10 µM (BIKE): 100%
remaining binding at 10 µM (EPHA1): 93%
remaining binding at 10 µM (CAMK1B): 100%
remaining binding at 10 µM (FLT3(D835V)): 88%
remaining binding at 10 µM (LATS1): 89%
remaining binding at 10 µM [2]: 98%
remaining binding at 10 µM (CAMK2D): 100%
remaining binding at 10 µM (EPHA6): 100%
remaining binding at 10 µM (PIK3C2G): 100%
remaining binding at 10 µM (DAPK3): 76%
remaining binding at 10 µM (PRKCI): 95%
remaining binding at 10 µM (AXL): 96%
